# Results as given in paper PMC12503906, “Novel Pyrazolo [1,5‐a]−1,3,5‐Triazine Derivatives as CDK7 Inhibitors: Synthesis and Biological Insights in Pancreatic Ductal Adenocarcinoma Models” (Chemmedchem, 2025).
# Assays:
# PANC‐1 = assay: Annexin V apoptosis assay, PANC‐1; type: cell-based; details: 1 × IC50
# Protocol: (§1) In order to investigate the apoptotic properties of the compounds 1b and 1g, the Annexin V apoptosis assay was performed. Annexins are calcium‐dependent phospholipid binding proteins, which are able to bind to phosphatidylserine (PS). The externalization of PS residues on the outer membrane of apoptotic cells can be detected by Annexin V.
# (§2) For this assay, cells were seeded in a 96‐well plate at a concentration of 13.5 × 10^3 and 4.5 × 10^3 /well respectively for the 24 and 72 h experiments. The next day cells were treated with compounds 1b and 1g at 1 × IC50 and 4 × IC50 concentrations. The apoptosis assay was performed 24 and 72 h post‐treatment following the BD Pharmingen FITC Annexin V Apoptosis Detection Kit I (BD Biosciences, 556,547). The supernatant was aspirated, and cells were washed with phosphate‐buffered saline (PBS). Cells were consequently treated with binding buffer BBA + Annexin V (1:100) and were incubated in the dark at RT for 10 min. The supernatant was removed, and the cells were washed with BBA (1:10). Cells were then incubated with BBA + PI (1:100) and were immediately read with the spectrophotometer at ex. 485/ em. 535. Two different programs were used to read the Annexin V and the PI absorbance. Lastly, 100 µL of PBS were added to each well before being fixed with TCA. This was followed by the SRB assay to standardize fluorescence data according to cell count. Data were exported into GraphPad Prism 10 for statistical analysis.
# PATU‐T [1] = assay: Annexin V apoptosis assay, PATU‐T; type: cell-based; details: 1 × IC50
# Protocol: as §1, §2
# SUIT 2.28 [2] = assay: Wound healing assay, SUIT 2.28; type: cell-based
# Protocol: The wound healing assay was used to test the migratory ability of the selected cells post‐treatment. Cells (5 × 10^4 /well) were seeded on 96‐well. After 24 h, cells reached the optimal 100% confluency, and an artificial wound was created with a 96‐well Pintool Scratcher. The cells were immediately washed with complete medium, in order to remove cell debris after the scratch, and images of the wells were captured at time 0 h, right before the addition of the treatment. Each drug (1b and 1g) was previously diluted in the respective medium at two different concentrations: 1 × IC50 and 4 × IC50 (according to the cell specific IC50 value) and were then added to the cells. Images were then taken at timepoints 4, 8, 20, and 24 h using the Leica microscope with a JAI TMC‐137 camera to assess wound closure. The images were analyzed using the Universal Grab 6.3 software (DCILabs), and the obtained data were used to determine the percentage of migration of the cells, using the following formula. (2) % Migration=Mean width of the wound atT=0−Mean width of the wound atT=X/Mean width of the wound atT=0×100
# PATU‐T spheroids = assay: PATU‐T 3D spheroids, resazurin viability; type: cell-based; details: three cell densities, 1 × IC50 and 4 × IC50
# Protocol: The modulation of the growth of spheroids was utilized as a method to assess the effect of the novel compounds 1b and 1g in a 3D structure. The PATU‐T cell line was employed to make such a structure. Agarose 1.5% is a solid gel at RT; thus, in order to become a liquid solution, it was heated up into a microwave for about 30 s—1 min, depending on when it starts boiling. Once heated up, the bottle containing the agarose was wrapped in aluminum foil, and it was allowed to maintain the temperature and the liquid state of the agarose. Each well of a flat‐bottom 96‐well plate was coated with 70 µL of agarose. Plates were left to cool down and dried for 1 h at RT. Afterward, 7 × 10^3, 1 × 10^4, and 2 × 10^4 cells/well (200 µL) were seeded in order to identify the optimal amount of cell for the spheroid formation. Finally, the plates were centrifuged at 1200 rpm for 6 min and placed in the incubator for 7 days at 37 °C, 5% CO2. After one week, spheroids were imaged at day 0 h with the inverted routine microscope Nikon Eclipse Ts2 and were consequently treated with compounds 1b and 1g at 4 × IC50 and 1 × IC50. In order to assess the effects of the treatment, images were then taken every 3 days, and medium along with treatment was refreshed at the same interval. […] Cells were then collected, counted, and reseeded in 96‐well plates. […] Absorbance was read at 570 nm.
# [3] = biological target: phosphorylated CDK7 (p‐CDK7) (Homo sapiens, UniProt P50613); assay: Phospho‐CDK7 (Thr170) cell‐based ELISA, PDAC3; parameters: endogenous in cells; host or cells: PDAC3 primary cells; details: PDAC3, 4 × IC50, ELISA
# Chain of phosphorylated CDK7 (p‐CDK7) (P50613 2-346 limits assumed): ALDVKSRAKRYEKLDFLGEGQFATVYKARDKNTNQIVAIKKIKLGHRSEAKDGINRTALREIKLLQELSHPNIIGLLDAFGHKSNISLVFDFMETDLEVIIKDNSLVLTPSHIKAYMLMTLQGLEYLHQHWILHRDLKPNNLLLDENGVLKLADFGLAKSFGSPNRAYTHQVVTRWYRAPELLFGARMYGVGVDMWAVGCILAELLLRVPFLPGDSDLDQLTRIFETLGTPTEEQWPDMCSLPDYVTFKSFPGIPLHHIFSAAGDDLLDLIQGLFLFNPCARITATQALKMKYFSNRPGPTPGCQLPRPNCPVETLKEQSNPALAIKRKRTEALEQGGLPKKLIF
# Chain of phosphorylated CDK7 (p‐CDK7) (P51946 whole entry partner): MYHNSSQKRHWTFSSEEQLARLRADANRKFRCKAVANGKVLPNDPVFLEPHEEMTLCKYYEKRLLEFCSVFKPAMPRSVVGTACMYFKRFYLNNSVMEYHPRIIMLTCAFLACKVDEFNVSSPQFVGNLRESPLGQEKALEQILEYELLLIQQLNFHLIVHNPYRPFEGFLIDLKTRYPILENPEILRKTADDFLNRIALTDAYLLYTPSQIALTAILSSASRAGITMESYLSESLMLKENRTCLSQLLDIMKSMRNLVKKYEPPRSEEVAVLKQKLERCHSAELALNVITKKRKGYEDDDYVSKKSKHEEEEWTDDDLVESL
# Chain of phosphorylated CDK7 (p‐CDK7) (P51948 whole entry partner): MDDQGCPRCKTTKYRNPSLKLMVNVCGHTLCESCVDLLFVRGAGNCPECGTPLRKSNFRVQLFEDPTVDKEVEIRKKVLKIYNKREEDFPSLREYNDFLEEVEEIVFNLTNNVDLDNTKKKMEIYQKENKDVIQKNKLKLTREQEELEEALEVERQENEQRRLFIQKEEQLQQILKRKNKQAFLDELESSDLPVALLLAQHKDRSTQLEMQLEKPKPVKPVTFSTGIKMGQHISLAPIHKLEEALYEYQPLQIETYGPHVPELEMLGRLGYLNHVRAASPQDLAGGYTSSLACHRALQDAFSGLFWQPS
# Protocol: To detect CDK7 and phospho‐CDK7 levels at Thr170 residue after treatment, an enzyme‐linked immunosorbent assay (Biomatik, Phospho‐CDK7 (Thr170) Colorimetric Cell‐Based ELISA Kit, Cat# EKA51274) was performed according to the manufacturer's protocols. […] The absorbance was read at 450 nm using a microplate reader.
# PATU‐T [4] = assay: Cell cycle analysis (FACS, PI staining), PATU‐T; type: cell-based; details: for percentage of cells in the G2‐M phase: untreated 18.4%; for percentage of cells in the S phase: untreated 32.5%; for percentage of cells in the G0‐G1 phase: untreated 49.1%
# Protocol: (§3) Modulation of the cell cycle was analyzed via flow cytometry. Cells (5 × 10^5 cells mL^− ^1) were seeded in 6‐well plates and were incubated at 37 °C overnight. Cells were treated with the compounds 1b and 1g at two different concentrations (1 × IC50 and 4 × IC50, according to each cell line) and were again incubated for 24 and 72 h. After treatment, cells were harvested with trypsin and were collected in specific fluorescence‐activated cell sorting (FACS) tubes. Cells were then washed with PBS and centrifuged at 1500 rpm for 5 min, in order to form a pellet. These pellets were fixed in 1 mL of ice‐cold 70% ethanol, added drop by drop during vortex, and placed in the refrigerator at 4 °C. After overnight incubation, the cells were washed twice with PBS, centrifuged (5 min at 1500 rpm), resuspended in 50 µL of RNase (100 µg mL^− ^1), and incubated for 30 min at 37 °C. Finally, 200 µL of propidium iodide solution (PI, 50 µg mL^− ^1) was added, and the cell distribution in the various phases of the cell cycle was analyzed via BD LSRFortessa Cell Analyzer. Data analysis was carried out with FACSdiva software (Becton Dickinson), while cell cycle distribution was determined using FCS express software.
# SUIT 2.28 [5] = assay: Cell cycle analysis (FACS, PI staining), SUIT 2.28; type: cell-based; details: for percentage of cells in the G0‐G1 phase: untreated 24.6%; for percentage of cells in the G2‐M phase: untreated 32.7%; for percentage of cells in the S phase: untreated 42.7%
# Protocol: as §3
Structure (SMILES),"apoptotic index (PANC‐1; PANC‐1, 24 h)","apoptotic index (PANC‐1; PANC‐1, 72 h)",apoptotic index (PATU‐T [1]; 24 h),apoptotic index (PATU‐T [1]; 72 h),"inhibition of cell migration (SUIT 2.28 [2]; SUIT 2.28, 1 × IC50 and 4 × IC50)",cell viability compared to untreated controls (resazurin) (PATU‐T spheroids),p‐CDK7 expression vs untreated [3],"percentage of cells in the G2‐M phase (PATU‐T [4]; 1 × IC50, 24 h) [%]","percentage of cells in the S phase (PATU‐T [4]; 1 × IC50, 24 h) [%]","percentage of cells in the G0‐G1 phase (PATU‐T [4]; 1 × IC50, 24 h) [%]","percentage of cells in the G2‐M phase (PATU‐T [4]; 4 × IC50, 24 h) [%]","percentage of cells in the S phase (PATU‐T [4]; 4 × IC50, 24 h) [%]","percentage of cells in the G0‐G1 phase (PATU‐T [4]; 4 × IC50, 24 h) [%]","percentage of cells in the G0‐G1 phase (SUIT 2.28 [5]; SUIT 2.28, 1 × IC50, 24 h) [%]","percentage of cells in the G2‐M phase (SUIT 2.28 [5]; SUIT 2.28, 1 × IC50, 24 h) [%]","percentage of cells in the S phase (SUIT 2.28 [5]; SUIT 2.28, 1 × IC50, 24 h) [%]","percentage of cells in the G0‐G1 phase (SUIT 2.28 [5]; SUIT 2.28, 4 × IC50, 24 h) [%]","percentage of cells in the G2‐M phase (SUIT 2.28 [5]; SUIT 2.28, 4 × IC50, 24 h) [%]","percentage of cells in the S phase (SUIT 2.28 [5]; SUIT 2.28, 4 × IC50, 24 h) [%]","inhibition of cell migration (SUIT 2.28 [2]; SUIT 2.28, 1 × IC50)"
"Nc1ncnc2cc(-c3c[nH]c4ccc(Br)cc34)nn12 [Compound 1b, 7‐(5‐Bromo‐1H‐indol‐3‐yl)pyrazolo[1,5‐a][1,3,5]triazin‐4‐amine]",did not show any significant increase in apoptotic index,significant increase in apoptotic index,did not show a significant apoptotic index,significant increase in apoptotic index,strong inhibitory effects,significantly reduced viability,decrease in p‐CDK7 expression,14.9,49.6,35.5,10.1,60.0,30.0,41.0,18.7,40.3,41.6,21.6,34.9,–
"Cn1cc(-c2cc3ncnc(N)n3n2)c2cc(Br)ccc21 [Compound 1g, 7‐(5‐Bromo‐1‐methyl‐1H‐indol‐3‐yl)pyrazolo[1,5‐a][1,3,5]triazin‐4‐amine]",did not show any significant increase in apoptotic index,slight increase that was not statistically significant,significantly increased apoptosis,not significant compared to control,–,significantly reduced viability,decrease in p‐CDK7 expression,17.7,35.0,47.4,15.2,39.0,45.7,36.2,25.9,37.8,40.3,25.4,34.2,greatest inhibition
